The source of these data is PubChem BioAssay AID330 (DTP/NCI, 2004).

Structures are written as SMILES. “And” between values parts separate entries of the source, which are not always exact repeats. Equal values may be shown once. Toxic doses and inconclusive results are not listed.

The test system of the test is P388 leukemia ip, CD2F1 mice, survival T/C. Kind of test: NCI In Vivo Anticancer Drug Screen. Data for tumor model P388 Leukemia (intraperitoneal) in CD2F1 (CDF1) mice. The note with it: endpoint: median survival time, higher = longer survival. Put shortly:
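Mice carrying the transplanted tumor received test compound or vehicle. Survival was recorded in each group, and the value is the treated-group measurement divided by that of the vehicle-treated control group.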

Where [1] appears, read: dose: 50.0 mg/kg/injection, schedule: Q01DX009 (ip), vehicle: saline.
[2] abbreviates: dose: 100.0 mg/kg/injection, schedule: Q01DX009 (ip), vehicle: saline.
[3] abbreviates: dose: 200.0 mg/kg/injection, schedule: Q01DX009 (ip), vehicle: saline.
[4] abbreviates: dose: 25.0 mg/kg/injection, schedule: Q01DX009 (ip), vehicle: saline with Tween-80.
Where [5] appears, read: dose: 50.0 mg/kg/injection, schedule: Q01DX009 (ip), vehicle: saline with Tween-80.
The mark [6] stands for this setting: dose: 100.0 mg/kg/injection, schedule: Q04DX003 (ip), vehicle: saline with Tween-80.
Setting [7] is: dose: 200.0 mg/kg/injection, schedule: Q04DX003 (ip), vehicle: saline with Tween-80.
Setting [8] is: dose: 400.0 mg/kg/injection, schedule: Q04DX003 (ip), vehicle: saline with Tween-80.
Setting [9] is: dose: 100.0 mg/kg/injection, schedule: Q01DX009 (ip), vehicle: saline with Tween-80.
Setting [10] is: dose: 50.0 mg/kg/injection, schedule: Q01DX005 (ip), vehicle: saline with Tween-80.
[11] abbreviates: dose: 100.0 mg/kg/injection, schedule: Q01DX001 (ip), vehicle: Klucel (hydroxypropylcellulose) (HPC).
Setting [12] is: dose: 200.0 mg/kg/injection, schedule: Q01DX001 (ip), vehicle: Klucel (hydroxypropylcellulose) (HPC).
[13] abbreviates: dose: 25.0 mg/kg/injection, schedule: Q01DX009 (ip), vehicle: Klucel (hydroxypropylcellulose) (HPC).
[14] abbreviates: dose: 50.0 mg/kg/injection, schedule: Q01DX009 (ip), vehicle: Klucel (hydroxypropylcellulose) (HPC).
Setting [15] is: dose: 100.0 mg/kg/injection, schedule: Q01DX009 (ip), vehicle: Klucel (hydroxypropylcellulose) (HPC).

For `COc1cc2c(c(OC)c1OC)-c1ccc(OC)c(=O)cc1[C@@H](NC(C)=O)CC2`, the T/C runs as follows: (dose: 0.02 mg/kg/injection, schedule: Q01DX009 (ip), vehicle: saline) 117 % of control; (dose: 0.06 mg/kg/injection, schedule: Q01DX009 (ip), vehicle: saline) 119 % of control; (dose: 0.08 mg/kg/injection, schedule: Q01DX009 (ip), vehicle: saline) 150 % of control; (dose: 0.13 mg/kg/injection, schedule: Q01DX005 (ip), vehicle: saline) 120 % of control; (dose: 0.16 mg/kg/injection, schedule: Q01DX009 (ip), vehicle: saline) 156 % of control; (dose: 0.32 mg/kg/injection, schedule: Q01DX009 (ip), vehicle: saline) 186 % of control. Further, the T/C was 168 % of control (dose: 0.37 mg/kg/injection, schedule: Q01DX010 (ip), vehicle: saline); 176 % of control (dose: 0.4 mg/kg/injection, schedule: Q01DX009 (ip), vehicle: water); 169 % of control (dose: 0.5 mg/kg/injection, schedule: Q01DX005 (ip), vehicle: saline); 225 % of control (dose: 0.64 mg/kg/injection, schedule: Q01DX009 (ip), vehicle: saline); 159 % of control (dose: 0.75 mg/kg/injection, schedule: Q01DX010 (ip), vehicle: saline); 160 % of control and 197 % of control and 205 % of control (dose: 1.0 mg/kg/injection, schedule: Q01DX005 (ip), vehicle: saline). For the same compound, the T/C (dose: 1.25 mg/kg/injection, schedule: Q01DX009 (ip), vehicle: saline) was 100 % of control (2×) and 281 % of control; the T/C (dose: 2.0 mg/kg/injection, schedule: Q01DX005 (ip), vehicle: saline) was 175 % of control.
On to `O=[N+]([O-])c1cc2c(cc1Br)C1C(C3C2C2(Cl)C(Cl)=C(Cl)C3(Cl)C2(Cl)Cl)C2(Cl)C(Cl)=C(Cl)C1(Cl)C2(Cl)Cl` (centres undefined), for which the T/C runs as follows: under setting [1], 107 % of control; under setting [2], 105 % of control; under setting [3], 108 % of control.
Take `COCC1OC(OC2C3=C(C(C)C)CCC3(C)/C=C3\C(CCC3(O)COC)C(C)C2O)C(O)C2OC3OC12OC3(C)C1CO1` (centres undefined): the T/C (dose: 1.5 mg/kg/injection, schedule: Q01DX009 (ip), vehicle: Klucel (hydroxypropylcellulose) (HPC)) was 96 % of control; the T/C (dose: 3.0 mg/kg/injection, schedule: Q01DX009 (ip), vehicle: Klucel (hydroxypropylcellulose) (HPC)) was 113 % of control; the T/C (dose: 6.0 mg/kg/injection, schedule: Q01DX009 (ip), vehicle: Klucel (hydroxypropylcellulose) (HPC)) was 91 % of control; the T/C (dose: 12.0 mg/kg/injection, schedule: Q01DX009 (ip), vehicle: Klucel (hydroxypropylcellulose) (HPC)) is 97 % of control; the T/C (dose: 24.0 mg/kg/injection, schedule: Q01DX009 (ip), vehicle: Klucel (hydroxypropylcellulose) (HPC)) is 100 % of control.
Take `[Cl][Eu][Cl]`: the T/C is, setting by setting: under setting [1], 87 % of control; under setting [2], 91 % of control.
For `NC(CO)C(=O)O` (centres undefined), the T/C is, setting by setting: (dose: 12.5 mg/kg/injection, schedule: Q01DX009 (ip), vehicle: saline with Tween-80) 102 % of control; under setting [4], 105 % of control; (dose: 25.0 mg/kg/injection, schedule: Q01DX009 (ip), vehicle: saline) 110 % of control; under setting [5], 114 % of control; under setting [1], 112 % of control [middle of 4 runs]; under setting [2], 104 % of control [middle of 4 runs]. The T/C under setting [6] was 99 % of control, the T/C under setting [3] is 110 % of control [middle of 4 runs], the T/C under setting [7] was 97 % of control and the T/C under setting [8] is 100 % of control.
As for `CC(C)N1CSC(=S)N(Cc2ccccc2)C1`, the T/C was 107 % of control under setting [4]; 97 % of control and 98 % of control under setting [5]; 93 % of control and 98 % of control under setting [9]; 89 % of control (dose: 200.0 mg/kg/injection, schedule: Q01DX009 (ip), vehicle: saline with Tween-80).
For `[Cl][Ge]([Cl])([Cl])[c]1ccccc1`, the T/C is, setting by setting: under setting [1], 100 % of control; under setting [2], 100 % of control.
Regarding `CCc1ccc2c(-c3ccccc3)c3c(-c4ccccc4)c4ccccc4c(-c4ccccc4)c3c(-c3ccccc3)c2c1`, the T/C is 99 % of control (dose: 12.5 mg/kg/injection, schedule: Q01DX005 (ip), vehicle: saline with Tween-80); 91 % of control (dose: 25.0 mg/kg/injection, schedule: Q01DX005 (ip), vehicle: saline with Tween-80); 98 % of control and 88 % of control under setting [10].
For `O=C(CN1C(=O)c2cccc3c(Br)ccc(c23)C1=O)c1ccc(Cl)cc1`, the T/C runs as follows: under setting [10], 92 % of control; (dose: 100.0 mg/kg/injection, schedule: Q01DX005 (ip), vehicle: saline with Tween-80) 92 % of control; (dose: 200.0 mg/kg/injection, schedule: Q01DX005 (ip), vehicle: saline with Tween-80) 90 % of control.
`O=C(O)CC(=O)NC1c2ccccc2Oc2ccccc21`: the T/C is 94 % of control (dose: 50.0 mg/kg/injection, schedule: Q01DX005 (ip), vehicle: Klucel (hydroxypropylcellulose) (HPC)); 97 % of control (dose: 100.0 mg/kg/injection, schedule: Q01DX005 (ip), vehicle: Klucel (hydroxypropylcellulose) (HPC)); 99 % of control (dose: 200.0 mg/kg/injection, schedule: Q01DX005 (ip), vehicle: Klucel (hydroxypropylcellulose) (HPC)).
As for `O=S(=O)(O)C(O)c1ccc(Cl)cc1Cl` (centres undefined), the T/C is, setting by setting: (dose: 50.0 mg/kg/injection, schedule: Q01DX001 (ip), vehicle: Klucel (hydroxypropylcellulose) (HPC)) 100 % of control; under setting [11], 100 % of control; under setting [12], 116 % of control.
In the case of `Oc1ccc(N=Cc2cccs2)cc1`, the T/C is 110 % of control under setting [13]; 100 % of control under setting [14]; 106 % of control under setting [15]; 105 % of control (dose: 200.0 mg/kg/injection, schedule: Q01DX009 (ip), vehicle: Klucel (hydroxypropylcellulose) (HPC)).
As to `N#Cc1c(-c2ccccc2)cn2c1[nH]c(=O)c1ccccc12`, the T/C reads like this: (dose: 60.0 mg/kg/injection, schedule: Q01DX005 (ip), vehicle: saline with Tween-80) 111 % of control; (dose: 120.0 mg/kg/injection, schedule: Q01DX005 (ip), vehicle: saline with Tween-80) 107 % of control; (dose: 240.0 mg/kg/injection, schedule: Q01DX005 (ip), vehicle: saline with Tween-80) 101 % of control.
On to `CCn1c(Cl)c(/C=N/NC(N)=S)c2cc(/C=N/NC(N)=S)ccc21`, for which the T/C is 98 % of control under setting [11]; 97 % of control under setting [12]; 89 % of control (dose: 400.0 mg/kg/injection, schedule: Q01DX001 (ip), vehicle: Klucel (hydroxypropylcellulose) (HPC)).
For `O=C(/C=N/O)Nc1ccccc1`, the T/C was 100 % of control and 107 % of control (dose: 12.5 mg/kg/injection, schedule: Q01DX009 (ip), vehicle: Klucel (hydroxypropylcellulose) (HPC)); 99 % of control and 100 % of control and 106 % of control under setting [13]; 103 % of control and 92 % of control under setting [14]; 101 % of control and 109 % of control and 114 % of control under setting [15].
As to `C[CH2][Sn]1([CH2]C)[c]2ccccc2Oc2cccc[c]21`, the T/C is, setting by setting: under setting [5], 109 % of control; under setting [9], 109 % of control.
Consider `O=C1CNC(=O)c2cc(N=Cc3ccccc3O)ccc2N1`, for which the T/C was 111 % of control under setting [6], 114 % of control under setting [7] and 104 % of control under setting [8].
For `O=C(OCc1ccccc1)N1Cc2cc3ccccc3nc2C1` the same measures were 103 % of control, 103 % of control and 101 % of control.
For the compound `CC12CCC3(O)C(CCC4C(O)C(=O)CCC43C)C1CCC2=O` (centres undefined), the T/C by setting is: (dose: 11.25 mg/kg/injection, schedule: Q01DX005 (ip), vehicle: Klucel (hydroxypropylcellulose) (HPC)) 105 % of control; (dose: 22.5 mg/kg/injection, schedule: Q01DX005 (ip), vehicle: Klucel (hydroxypropylcellulose) (HPC)) 100 % of control; (dose: 45.0 mg/kg/injection, schedule: Q01DX005 (ip), vehicle: Klucel (hydroxypropylcellulose) (HPC)) 105 % of control; (dose: 90.0 mg/kg/injection, schedule: Q01DX005 (ip), vehicle: Klucel (hydroxypropylcellulose) (HPC)) 114 % of control; (dose: 180.0 mg/kg/injection, schedule: Q01DX005 (ip), vehicle: Klucel (hydroxypropylcellulose) (HPC)) 98 % of control.
